Series [1] can be described thus: Compound stability test in plasma (mouse). The series is classed as in vitro ADME. Here is the method: In this study, mouse, SD rat, Beagle, cynomolgus monkey and human plasma were used as materials to investigate the stability of the tested compounds in the plasma of the above five species. Propantheline, Enalapril, Bisacodyl and Procaine were used as control compounds.
The experimental conditions for the test compounds were as follows: • test concentration: 2 μM (DMSO ≤0.5%); • incubation times: 0, 10, 30, 60 and 120 minutes; • frozen plasma (from multiple species) was used in the test system; • incubation conditions: 37° C.
The mixed frozen plasma was thawed in a 37° C. water bath prior to the experiment. Plasma was centrifuged at 4000 rpm for 5 minutes and cleared if there was a clot. The pH will be adjusted to 7.4±0.1 if required.
The intermediate solution of 1 mM compound and positive control was prepared by diluting 10 mM stock solution with 90 μL of dimethyl sulfoxide. 100 μM solution was prepared by diluting 20 μL of intermediate solution (1 mM) with 180 μL of 45% methanol/water.
2 μL of 100 μM solution was added to 98 μL of blank plasma to achieve a final concentration of 2 μM (in duplicate) of the sample, and the sample was incubated in a 37° C. water bath. At each time point (0, 10, 30, 60 and 120 min), 400 μL of termination solution (200 ng/mL toluenesulfonylurea and 200 ng/mL labetalol, 50% ACN/MeOH) was added to precipitate the proteins and mixed thoroughly. […]

Series [2] relates to A431 (EGFR wild type) cells. Briefly: Anti-proliferation activity test against A431 cells. Format: cell-based. The conditions noted are these: Homo sapiens, A-431; A431, Cell-Titer Glo, 72 hours. The protocol: (§1) (2) Anti-Proliferation Activity Test of the Compound Against H1975 Cells and IC50 Test of Anti-Proliferation Activity Against A431 Cells
(§2) RPMI1640 medium, FBS fetal bovine serum, trypsin-EDTA, were all purchased from Giboco. DPBS was purchased from Corning, penicillin/streptomycin solution was purchased from Hyclone, and Cell-Titer Glo reagent was purchased from Promega (1kit, Cat. No. G7571). Plate reading instrument: Envision (PerkinElmer).
(§3) 384-well plates in columns 1, 2, and 24 were added with 45 μL of medium, and the cell suspension was dispensed with Multi-drop at 45 μL per well (1000 cells) and incubated overnight in an incubator. The compound was added to the source plate according to the Echo dispensing requirements, the compound in the source plate was added to the inter plate and diluted to an intermediate concentration, then the compound in the source plate and the inter plate was added to the cell plate, and the cells were continued to be incubated in a incubator for 72 hours. After 72 hours, Cell-Titer Glo reagent and cells were removed and equilibrated at room temperature for 30 min. 25 μL of Cell-Titer Glo reagent was dispensed into 384-well plates with Multi-drop, the cell plate was vibrated at medium speed for 3 min, centrifuged at 1000 rpm for 2 min, and stood for 10 min. The plate was read by Envision (Luminescence). […]

The target of series [3] is EGFR exon 20 insertion (D770_N771insNPG) enzyme (Homo sapiens, UniProt P00533, INS770NPG). Briefly: Kinase assay (HTRF KinEASE TK), EGFR exon 20 insertion. Format: biochemical. An excerpt:
To detect the inhibitory effect of compounds on EGFR WT, EGFR (D770_N771insNPG), ERBB2 (V777_G778ins>CG), EGFR T790M/L858R enzyme activities
EGFR WT (Invitrogen, Cat. No. PR7295B), EGFR [L858R] (Invitrogen, Cat. No. PR7447A), EGFR [d746-750] (Invitrogen, Cat. No. PV6179), ATP (Sigma, Cat. No. A7699-1G), DMSO (Sigma, Cat. No. D2650), DTT (Sigma, Cat. No. 43815), 384-well plate, compound dilution plate (Greiner, Cat. No. 781280), 384-well plate, test plate (Perkin Elmer, Cat. No. 6007299), HTRF KinEASE TK Kit (Cisbio, Cat. No. 62TK0PEB), magnesium chloride (Sigma, Cat. No. M1028), Orthovanadate (Sigma, Cat. No. 56508), BSA (Sigma, Cat. No. A7030), HEPES (Life technology, Cat. No. 11344-041).
The final test concentrations of the test compounds ranged from 10 μM to 0.17 nM in 3-fold gradient dilutions at 11 concentrations.
The preparation of the buffer, 50 mM HEPES (pH 7.5), 0.01% BSA, 5 mM MgCl2, and 0.1 mM Orthovanadate were contained in the buffer. After the preparation of the buffer, the enzyme and substrate were mixed with pre-diluted prepared compounds of different concentrations, and the mixture was placed at room temperature for 15 minutes. […] After the reaction was completed, the antibody was added to the assay, incubated at room temperature for 60 minutes and then detected by Envision (plate reading instrument), and data were collected. […]
For orientation: TR-FRET usually uses a lanthanide donor and a delayed reading to cut background.

In series [4] the test system is H1975 (L858R/T790M) cells. Kind of series: Anti-proliferation activity test against H1975 cells. Format: cell-based. The settings on record: Homo sapiens, NCI-H1975, Cell-Titer Glo, 72 hours. Here is the method:
as §1, §2, §3

Where “and” joins values, the source holds several entries; their conditions need not be identical. Equal values may be shown once.

Chain of EGFR exon 20 insertion (D770_N771insNPG) enzyme (P00533 with tags, fused parts or gaps INS770NPG limits assumed): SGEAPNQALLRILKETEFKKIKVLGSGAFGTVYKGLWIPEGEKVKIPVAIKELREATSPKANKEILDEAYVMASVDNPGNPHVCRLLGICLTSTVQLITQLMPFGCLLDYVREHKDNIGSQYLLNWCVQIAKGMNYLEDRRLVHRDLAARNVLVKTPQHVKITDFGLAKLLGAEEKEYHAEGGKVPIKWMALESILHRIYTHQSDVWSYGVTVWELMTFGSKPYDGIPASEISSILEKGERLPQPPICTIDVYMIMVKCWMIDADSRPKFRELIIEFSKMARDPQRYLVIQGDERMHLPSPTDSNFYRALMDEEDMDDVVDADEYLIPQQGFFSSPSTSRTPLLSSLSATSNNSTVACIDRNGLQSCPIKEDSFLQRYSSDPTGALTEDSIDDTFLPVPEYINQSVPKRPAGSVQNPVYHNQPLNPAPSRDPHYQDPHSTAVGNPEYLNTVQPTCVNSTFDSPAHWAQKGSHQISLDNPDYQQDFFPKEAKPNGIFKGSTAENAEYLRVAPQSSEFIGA

The IC50 is the concentration that inhibits the measured activity by half. Read a low IC50 as higher potency. Consider `C=CC(=O)Nc1cc(Nc2ncc(C(=O)OC(C)C)c(-c3cn(OC)c4ccccc34)n2)c(OC)cc1N(C)CCN(C)C.CS(=O)(=O)O` [Compound 1], for which, in series [1] (120 minutes, 2 μM, 37° C.), the “In vitro plasma stability (Residual percentage)” value is recorded as 45%. In addition, the half-life at 2 µM in series [1] (pH 7.4, 37° C., read-out: In vitro plasma half-life T1/2) turned out to be 1.81 h. The IC50 is 335 nM in series [2]; 0.8 nM and 0.7 nM in series [3]; 15.3 nM in series [4].
